Experimental data as given in ChEMBL document CHEMBL1201862, “PubChem BioAssay data set” (2004).
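Results reflect a 48-hour exposure of cells in 96-well plates to compound at five concentrations. At the GI50, growth is halved.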 Active and inactive are the calls of the source. Cut-off read from the data, not from the text of the source: active = GI50 up to about 1.1 µM and inactive = higher.

Columns and labels:
Assay in all cases: inhibition of tumour cell growth, NCI panel, 48 h
HCC 2998 = system: HCC 2998
BT-549 = system: BT-549
SF-295 = system: SF-295
NCI-H23 = system: NCI-H23
HOP-92 = system: HOP-92
K562 = system: K562
SW-620 = system: SW-620
786-0 = system: 786-0
OVCAR-3 = system: OVCAR-3
OVCAR-4 = system: OVCAR-4
UACC-62 = system: UACC-62
U-251 = system: U-251
SK-MEL-28 = system: SK-MEL-28
SK-MEL-2 = system: SK-MEL-2
SF-539 = system: SF-539
MOLT-4 = system: MOLT-4
EKVX = system: EKVX
M14 = system: M14
KM12 = system: KM12
T47D = system: T47D

O=C(N[C@H](CO)[C@H](O)c1ccc([N+](=O)[O-])cc1)C(Cl)Cl [CHLORAMPHENICOL]
GI50 (HCC 2998): > 100 µM (inactive)
GI50 (BT-549): > 100 µM (inactive)
GI50 (SF-295): > 100 µM (inactive)
GI50 (NCI-H23): > 100 µM (inactive)
GI50 (HOP-92): 85.3 µM (inactive)
GI50 (K562): > 100 µM (inactive)
GI50 (SW-620): > 100 µM (inactive)
GI50 (786-0): > 100 µM (inactive)
GI50 (OVCAR-3): > 100 µM (inactive)
GI50 (OVCAR-4): > 95.9 µM (inactive)
GI50 (UACC-62): > 100 µM (inactive)
GI50 (U-251): > 100 µM (inactive)
GI50 (SK-MEL-28): > 100 µM (inactive)
GI50 (SK-MEL-2): > 100 µM (inactive)
GI50 (SF-539): > 100 µM (inactive)
GI50 (MOLT-4): > 100 µM (inactive)
GI50 (EKVX): > 100 µM (inactive)
GI50 (M14): > 100 µM (inactive)
GI50 (KM12): > 100 µM (inactive)

Cc1csc(N/C=C2\C(=O)Oc3ccccc3C2=O)n1
GI50 (BT-549): 25.6 µM (inactive)
GI50 (NCI-H23): 18.2 µM (inactive)
GI50 (HOP-92): 17.9 µM (inactive)
GI50 (K562): 81.7 µM (inactive)
GI50 (SW-620): 33.2 µM (inactive)
GI50 (786-0): 34.8 µM (inactive)
GI50 (OVCAR-3): 26.7 µM (inactive)
GI50 (OVCAR-4): 32.7 µM (inactive)
GI50 (UACC-62): 24.6 µM (inactive)
GI50 (U-251): 26.2 µM (inactive)
GI50 (SK-MEL-2): 13.4 µM (inactive)
GI50 (SF-539): 26.9 µM (inactive)
GI50 (MOLT-4): 41 µM (inactive)
GI50 (EKVX): 21.3 µM (inactive)
GI50 (M14): 35.8 µM (inactive)
GI50 (KM12): 40 µM (inactive)

COC(=O)CNC(=O)C(CSC(=O)OCC1c2ccccc2-c2ccccc21)NC(=O)CCC(NC(=O)OCC1c2ccccc2-c2ccccc21)C(=O)OC (stereo not drawn)
GI50 (HCC 2998): 21.2 µM (inactive)
GI50 (BT-549): 17.5 µM (inactive)
GI50 (SF-295): 17.4 µM (inactive)
GI50 (NCI-H23): 17.5 µM (inactive)
GI50 (HOP-92): 13.5 µM (inactive)
GI50 (K562): 28.7 µM (inactive)
GI50 (SW-620): 55.2 µM (inactive)
GI50 (786-0): 13.7 µM (inactive)
GI50 (OVCAR-3): 18.1 µM (inactive)
GI50 (OVCAR-4): 16.9 µM (inactive)
GI50 (SK-MEL-28): 38.1 µM (inactive)
GI50 (SK-MEL-2): 16.9 µM (inactive)
GI50 (SF-539): 19.2 µM (inactive)
GI50 (MOLT-4): 21.2 µM (inactive)
GI50 (EKVX): 54.3 µM (inactive)
GI50 (M14): 24 µM (inactive)

Cc1c(CN)c(C)c(CN)c(C)c1CN
GI50 (HCC 2998): > 100 µM (inactive)
GI50 (BT-549): > 100 µM (inactive)
GI50 (SF-295): > 100 µM (inactive)
GI50 (NCI-H23): 27 µM (inactive)
GI50 (HOP-92): > 100 µM (inactive)
GI50 (K562): > 100 µM (inactive)
GI50 (SW-620): > 100 µM (inactive)
GI50 (786-0): > 100 µM (inactive)
GI50 (OVCAR-4): > 100 µM (inactive)
GI50 (U-251): > 100 µM (inactive)
GI50 (SK-MEL-28): > 100 µM (inactive)
GI50 (SK-MEL-2): > 100 µM (inactive)
GI50 (SF-539): > 100 µM (inactive)
GI50 (MOLT-4): > 100 µM (inactive)
GI50 (EKVX): > 100 µM (inactive)
GI50 (M14): > 100 µM (inactive)
GI50 (KM12): > 100 µM (inactive)

O=C1NC(=S)N/C1=C\c1ccc(Sc2ccccc2C(=O)O)s1
GI50 (HCC 2998): > 100 µM (inactive)
GI50 (BT-549): > 100 µM (inactive)
GI50 (SF-295): > 100 µM (inactive)
GI50 (NCI-H23): > 100 µM (inactive)
GI50 (K562): 93.5 µM (inactive)
GI50 (SW-620): > 100 µM (inactive)
GI50 (786-0): > 100 µM (inactive)
GI50 (OVCAR-3): > 100 µM (inactive)
GI50 (OVCAR-4): > 100 µM (inactive)
GI50 (UACC-62): 85.3 µM (inactive)
GI50 (U-251): > 100 µM (inactive)
GI50 (T47D): > 100 µM (inactive)
GI50 (SK-MEL-28): > 100 µM (inactive)
GI50 (SK-MEL-2): > 100 µM (inactive)
GI50 (MOLT-4): > 100 µM (inactive)
GI50 (EKVX): > 100 µM (inactive)
GI50 (KM12): > 100 µM (inactive)

N/C(=N\n1c(=S)[nH]c2ccccc2c1=O)Nn1c(=S)[nH]c2ccccc2c1=O
GI50 (HCC 2998): > 100 µM (inactive)
GI50 (BT-549): 20.3 µM (inactive)
GI50 (SF-295): > 100 µM (inactive)
GI50 (NCI-H23): 23.1 µM (inactive)
GI50 (K562): 26.6 µM (inactive)
GI50 (SW-620): 18.9 µM (inactive)
GI50 (786-0): 15.3 µM (inactive)
GI50 (OVCAR-3): > 100 µM (inactive)
GI50 (OVCAR-4): 49.9 µM (inactive)
GI50 (UACC-62): 75 µM (inactive)
GI50 (U-251): 27.9 µM (inactive)
GI50 (T47D): 23.4 µM (inactive)
GI50 (SK-MEL-28): 28.2 µM (inactive)
GI50 (SK-MEL-2): 46.6 µM (inactive)
GI50 (SF-539): 18.9 µM (inactive)
GI50 (MOLT-4): 11.4 µM (inactive)
GI50 (EKVX): 67.6 µM (inactive)
GI50 (M14): 11.4 µM (inactive)
GI50 (KM12): 96.8 µM (inactive)

O=C(NCCN1CCOCC1)c1ccc(I)cc1
GI50 (HCC 2998): > 100 µM (inactive)
GI50 (BT-549): > 100 µM (inactive)
GI50 (NCI-H23): > 100 µM (inactive)
GI50 (K562): > 100 µM (inactive)
GI50 (SW-620): > 100 µM (inactive)
GI50 (786-0): > 100 µM (inactive)
GI50 (OVCAR-3): > 100 µM (inactive)
GI50 (OVCAR-4): > 100 µM (inactive)
GI50 (UACC-62): > 100 µM (inactive)
GI50 (U-251): > 100 µM (inactive)
GI50 (SK-MEL-28): > 100 µM (inactive)
GI50 (SF-539): > 100 µM (inactive)
GI50 (MOLT-4): > 100 µM (inactive)
GI50 (EKVX): > 100 µM (inactive)
GI50 (M14): > 100 µM (inactive)

O=C1CCc2cc3c(cc21)CC1(Cc2ccccc2C1)C3
GI50 (HCC 2998): 8.75 µM (inactive)
GI50 (SF-295): 6.43 µM (inactive)
GI50 (NCI-H23): 26.9 µM (inactive)
GI50 (HOP-92): 6.32 µM (inactive)
GI50 (K562): 2.09 µM (inactive)
GI50 (SW-620): 4.34 µM (inactive)
GI50 (786-0): 36.3 µM (inactive)
GI50 (OVCAR-3): 8.75 µM (inactive)
GI50 (OVCAR-4): 50.1 µM (inactive)
GI50 (UACC-62): 21.1 µM (inactive)
GI50 (U-251): 7.96 µM (inactive)
GI50 (T47D): 20.2 µM (inactive)
GI50 (SK-MEL-28): 10.3 µM (inactive)
GI50 (SK-MEL-2): 2.11 µM (inactive)
GI50 (SF-539): 9.12 µM (inactive)
GI50 (MOLT-4): 0.678 µM (active)
GI50 (EKVX): > 27.3 µM (inactive)
GI50 (M14): 14.9 µM (inactive)
GI50 (KM12): > 22.4 µM (inactive)
